Several values for one entry are separate records, joined by “and”; a condition that tells them apart may be missing. Identical values can stand only once.
What was measured:
[1] = Encapsulation efficiency of doxorubicin hydrochloride in siosomes (absorbance at 480 nm after gel filtration); format: physicochemical
Procedure: A doxorubicin hydrochloride solution at 10 mg/ml was prepared using physiological saline. The predetermined amount of the doxorubicin hydrochloride solution was added to the sugar siosome dispersion using the cationic organosilicon compounds such as 1.2-(Dimethyldecylsilyl)ethyl-beta-D-glucosamin, 2.2-(Dimethyloctylsilylcholin)ethyl-beta-D-glucopyranosid and/or 1.2-(DiN,N,N,trimethylammoniadecylsilyl)ethyl-beta-D-glucopyranosid and the mixture was adjusted to pH 7.4, using 1 N NaOH or saturated sodium hydrogencarbonate and the mixture was stirred at 65°C for 30 minutes the thereby introduce the doxorubicin hydrochloride in the siosomes.
After doxorubicin hydrochloride introduction, the sample was cooled in an ice bath. Gel filtration was conducted using a column (Sepharose 4, fast flow, having a diameter of 2.8 cm and a length of 20 cm, fully substituted with 10% sucrose (pH 6.5)) to remove the doxorubicin hydrochloride that had not been introduced in the siosomes.
The amount of the sugar silanes in the siosomes, the amounts of the doxorubicin hydrochloride encapsulated in the siosomes and the siosomes themselves were measured by the same methods as in the above examples.
Concentration of the doxorubicin hydrochloride encapsulated in the siosomes was determined by measuring absorbance at 480 nm, using a spectrophotometer for the solution prepared by adding 2 ml of methanol to 40 µl of the doxorubicin siosomes. An alternative HPLC-based assay has also been used for the quantification of the doxorubicin in the formulations.
The above procedures described in example 16 were employed to prepare the carrier siosomes systems in this example. According to these methods of preparation, a dispersion of each of the following organo-silicon compounds were prepared, using doxorubicin hydrochloride solutions at […]. • Sil 8.1: Decyldimethylsilyl-α-D-galactopyranosid • Sil 9.1: Dodecyldimethylsilyl-α-D-glucopyranosid • SIL 15: 1-O-Dioctadecylsilyl-di(2,3,4,6-O-tetracetyl-β-D-galactopyranosid) • SIL 14: 1-o-Dioctadecylsilyl-di(2,3,4,6-O-tetracetyl-β-D-glucopyranosid)1-o- • SIL17: Didodecylsilyl-di(2,3,4,6-O-tetracetyl-β-D-glucopyranosid) • SIL18: Tridodecylsilyl-(2,3,4,6-O-tetracetyl-β-D-glucopyranosid) • Sil22.1 Di(octadecanoyloxy)dimethylsilan
The following parameters have been determined: 1 Physico chemical properties 2 Encapsulated efficiency of doxorubicin 3 Stability 4 Particle size distribution prior to lyophilisation and after dehydration using sterile water for injection 5 Release profile

[2] = for Particle size range of the Doxorubicin-siosomes (nm): Example 18: doxorubicin-siosomes prepared from the single organosilicon compound; for Particle size of the siosomes (nm): Example 21 (i): nucleic acid-siosomes complex of the cationic silane; for Particle size range (nm): Example 16, Table 5: doxorubicin-sugar-siosomes of the cationic organosilicon compound
Procedure: The siosome size was measured using Zetasizer (Malvern Instruments).
The obtained test samples were analyzed using a Zetasizer from Malvern to measure the particle size of the Siosomes® and its concentration (via determination of the count rate which related to the sample quality and concentration).
The Zetasizer from Malvern performs particle size measurements using a process called Dynamic Light Scattering (DLS). Dynamic Light Scattering (also known as PCS - Photon Correlation Spectroscopy) measures Brownian motion and relates this to the size of the particles. It does this by illuminating the particles with a laser and analyzing the intensity fluctuations in the scattered light. If the particles or molecules are illuminated with a laser, the intensity of the scattered light fluctuates at a rate that is dependent upon the size of the particles as smaller particles are "kicked" further by the solvent molecules and move more rapidly.

[3] = Encapsulation efficiency of nucleic acid in cationic silane siosomes; format: physicochemical; conditions: Example 21 (i): nucleic acid-siosomes complex of the cationic silane
Excerpt: The cationic silanes-lipid mixture and/or the empty cationic siosomes (the same or different siosomes prepared from the same or different silanes) loaded with buffer and/or cations (2^+) such as Ca^2+, Zn^2+, Mg^2+ at selected pH-values, is hydrated in an appropriate medium containing the nucleic acid.
The mixture will be vortexed and/or sonicated for a period of time at suitable temperature.
Procedures for characterisation, particle stirring, stability, release, lyophilisation, sterilisation, rehydration, storage, and administration were employed according to this invention.

[4] = Intracellular distribution of Cis-Oxoplatin within the rat liver, total platinum in liver homogenate and fractions; format: in vivo; conditions: for Average concentration of total platinum in the liver homogenate: 1.5 mg Cis-Oxoplatin encapsulated in Siosomes of the compound, intravenous, 3 hours after administration
Excerpt: • 1. The objective of the study to assess the intracellular distribution of Cis-Oxoplatin (as model drug molecule) in rat liver using Cis-Oxoplatin encapsulated in Siosomes®, using the following organosilicon compounds: • a. Sugar Organosilicon Compound: Didodecylsilyi-di(2,3,4,6-O-tetraacetyl-β-D-glucopyranosid (SIL 17) • b. Cationic Sugar Organosilicon Compound: 2.2-(Dimethyloctylsilylcholin)ethyl- β-D-glucopyranosid (SIL62) • c. Anionic Sugar Organosilicon Compound: 2-(Dimethyidecylsilyl)ethyl-β-D-glucopyranosidsulfate (SIL56) • d. Zwitterionic Sugar Organosilicon Compound: 2-(N,N,N, trimethylammonianonaylsilyl)ethyl- P-D-glucopyranosidsulfate (SIL66) • e. PEGylated Organosilicon Compound: 2-(Dimethyloctylsilylcholin)ethyl-β-D-PEG-acetylglucosaminether (SIL54) • 2. The different Siosomes® using each of the above mentioned organosilicon compounds have been prepared according to the procedures of this invention. The particle size range of the Siosomes® was 120-300 nm.
The Platinum-Siosomes®-Complex formulations were supplied in vials containing 10 mg each. Before administration, the contents of each vial was dissolved using 2 ml of sterile distilled water.
Each rat was administered with 1.5 mg investigative formulation, therefore each rat was administered 300 µl.
At the start of the study, all animals in all treatment groups received 1.5 mg of investigative drug. All drugs given via intravenous route were treated in an ultrasonic bath for five minutes at room temperature.
Tissue fractionation was performed by differential centrifugation yielding 5 fractions: • a. Mitochondrial fraction • b. Cytosol • c. Lysosomes • d. Microsomal fraction • e. Membrane fraction
Animals have been sacrificed 3 hours after the administration of the Siosomes® formulations. The livers have been removed from all animals. The liver homogenate has been prepared from the liver of each treatment group and used for the fractionation of the liver cells.
Each of the animals in the treatment control group for the determination of total platinum in the liver homogenate have been administered the Drug-Siosomes® formulations in the same way/procedures as the treatment groups.
Total platinum concentrations have been determined in each fraction for the treated and untreated animal groups. • Average animal weight = 211.64 ± 21.23 g • Average liver weight = 10.40 ± 1.27 g • Average concentration of total platinum in the liver homogenate of the treatment groups (control) • Group 1: Sugar Organosilicon Compound = 2.34 ± 0.82 µg/g • Group 2: Cationic Sugar Organosilicon Compound = 4.40 ± 1.30 µg/g • Group 3: Anionic Sugar Organosilicon Compound = 2.20 ± 0.90 µg/g • Group 4: Zwitterionic Sugar Organosilicon Compound = 3.10 ± 0.70 µg/g • Group 5: PEGylated Organosilicon Compound = 2.90 ± 1.20 µg/g

[5] = format: physicochemical; conditions: unloaded Siosomes, 42°C
Procedure: The following are the general procedures according to this invention for the preparation of the Siosomes® using ethanol injection method: • An ethanol solution of the Sugar Silane was injected rapidly into an excess of de-ionized water through a syringe equipped with a fine needle. The force of injection is in many cases sufficient to achieve a good Siosomes® suspension. In some cases the Siosomes® suspension was sonicated during the injection and afterwards for additional 15-45 minutes. The ratio of injected ethanol to water is maintained in a way that the resulting suspension contains not more than 4-7.5% ethanol. The Siosomes® suspension was prepared with a Sugar Silane concentration of 0.5-2.5 mg/ml depending on the used Silane. With this concentration, the final Siosomes® suspension is ready for use for many applications and for the preparation of the lyophilised Siosomes® powder.
The unloaded Siosomes® prepared according to the procedures of this invention using ethanolic solution injection has been investigated for stability.
The following parameters have been considered: • The optimal particle size of the Siosomes® for the further application of the Siosomes® for the encapsulation of active, for screening and for the performance of in-vitro and in-vivo animal studies • The optimal manufacturing conditions to achieve the best particle size distribution for the required particle size (approximately 90 %) • The performance of the Stability testing for the unloaded Siosomes® using the particle size measurements and their distribution • The performance of the Stability testing of the prepared unloaded Siosomes® at 4°C, 25°C and 37°C and 42°C • Stability testing of the prepared encapsulated Siosomes® at: Acidic conditions, alkaline conditions, oxidative conditions and light
All measurements are performed with a Malvern Zetaziser. The Zetasizer was programmed to perform 3 x 15 measurements for each sample. For each temperature and reading point (for each temperature test series 12 sample measurements were performed) two samples has been tested.
The count rate is measured in Kcps (Kilo counts per second), and enables the samples quality and concentration to be checked.

[6] = IPSS E011: pharmacokinetics and bioaccumulation of platinum complexes, total platinum in blood and organs by AAS; format: in vivo; conditions: rats, 1.0 mg intravenous, repeated dose over 7 consecutive days
Excerpt: IPSS E011: A Clinical Study in Rats on the Pharmacokinetics and Bioaccumulation of Platinum Complexes following the Repeated Dose over 7 Consecutive Days of Formulations (PT-11, PT-12 and PT-13), with 7 Days Non-Treatment Period
The following tables and figure 12 illustrate a summary of the generated results.

[7] = Example 18: doxorubicin-siosomes prepared from the single organosilicon compound
[8] = Example 16, Table 5: doxorubicin hydrochloride in sugar siosomes of the cationic organosilicon compound

Molecule | Encapsulation efficiency (%) [1, 7] | Particle size range of the Doxorubicin-siosomes (nm) [2] | Particle size of the siosomes (nm) [2] | Encapsulation efficiency (%) [3] | Encapsulation efficiency (%) [1, 8] | Particle size range (nm) [2] | Average concentration of total platinum in the liver homogenate ([4]; rats) | also measured
1. 2-(Di-N,N,N, trimethylammoniadecylsilyl) ethyl-beta-D-glucopyranosid [SIL 63] | 65-70% | 120-200 nm | 150-250 nm | 70-80% |  |  |  | 
1. 2-(Dimethyldecylsilyl) ethyl-beta-D-glucosamin [SIL 61] | 80-85% | 200-220 nm | 80-120 nm | 80-85% | 75-82% | 120-240 nm |  | 
2-(N,N,N,Dimethylammonia-methyl-decylsilyl)ethyl-beta-D-glucopyranosid [SIL 65] | 60-70% | 200-250 nm | 160-240 nm | 80-85% |  |  |  | 
2-(N,N,N,trimethylammonia nonanyllsilyl)ethyl-beta-D-glucopyranosid sulfate [SIL 66] | 55-70% | 150-220 nm |  |  |  |  | 3.10 ± 0.70 µg/g | 
2. 2-(Dimethyloctylsilylcholin) ethyl-beta-D-glucopyranosid [SIL 62] | 70-75% | 220-250 nm | 110-180 nm | 75-80% | 70-80% | 150-220 nm | 4.40 ± 1.30 µg/g | intracellular distribution of the encapsulated drug in all fractions ([4]; rat liver fractions (mitochondrial, cytosol, lysosomes, microsomal, membrane), intravenous application, compared with other Siosomes): significantly higher; concentration of total platinum in the liver homogenate compared with the other treatment groups ([4]; rats, i.v administration of Cis-Oxoplatin Siosomes, 3 hours): significantly higher
CCCCCCCCCC[Si](C)(C)CCO[C@@H]1O[C@H](CO)[C@@H](O)[C@H](O)[C@H]1O [SIL 2, 2-(Dimethyldecylsilyl)ethyl-β-D-glucopyranosid] |  |  |  |  |  |  |  | particle size diameter [5]: growing after 4 days
CCCCCCCCCC[Si](C)(C)CCO[C@@H]1O[C@H](COS(=O)(=O)O)[C@@H](O)[C@H](O)[C@H]1O [SIL 56, 2-(Dimethyldecylsilyl)ethyl-beta-D-glucopyranosidsulfate] | 60-70% | 200-220 nm |  |  |  |  | 2.20 ± 0.90 µg/g | 
CCCCCCCCCCCC[Si](C)(C)O[C@H]1O[C@H](CO)[C@@H](O)[C@H](O)[C@H]1O [Sil 9.1, Dodecyldimethylsilyl-α-D-glucopyranosid] | 60-65% | 150-200 nm |  |  |  |  |  | 
N.N.[Cl-].[Cl-].[OH-].[OH-].[Pt+4] [Standard Cis-Oxoplatin, Cis-oxoplatin] |  |  |  |  |  |  |  | Concentration of Total Platinum in Blood (ng/ml), Average ([6]; 7 days non-treatment period, average of 6 rats): 1521,92 ng/ml; Concentration of Total Platinum in Blood (ng/ml) ([6]; 7 days non-treatment period, individual rats): 1814,30 ng/ml and 1131,40 ng/ml and 1522,90 ng/ml and 1244,30 ng/ml and 1864,30 ng/ml and 1554,30 ng/ml; Concentration of Total Platinum in Kidney (µg/g), Average ([6]; average of 6 rats): 14,92 µg/g; Concentration of Total Platinum in Lung (µg/g), Average ([6]; average of 6 rats): 0,77 µg/g; Concentration of Total Platinum in Spleen (µg/g), Average ([6]; average of 6 rats): 2,39 µg/g; Concentration of Total Platinum in Stomach (µg/g), Average ([6]; average of 6 rats): 0,41 µg/g; Concentration of Total Platinum in Kidney (µg/g) ([6]; individual rats): 21,22 µg/g and 13,92 µg/g and 15,88 µg/g and 11,62 µg/g and 11,76 µg/g and 15,12 µg/g; Concentration of Total Platinum in Lung (µg/g) ([6]; individual rats): 0,80 µg/g and 0,62 µg/g and 1,09 µg/g and 0,52 µg/g and 0,71 µg/g and 0,86 µg/g; Concentration of Total Platinum in Stomach (µg/g) ([6]; individual rats): 0,51 µg/g and 0,47 µg/g and 0,38 µg/g and 0,35 µg/g (2×) and 0,37 µg/g; Concentration of Total Platinum in Spleen (µg/g) ([6]; individual rats, listed as Standard Cis-Oxoplatinum): 1,99 µg/g and 2,28 µg/g and 2,35 µg/g and 2,10 µg/g and 3,81 µg/g and 1,80 µg/g
Di-N,N,N, trimethylammoniadidodecylsilyl-di(2,3,4,6-O-tetraacetyl-beta-D-glucopyranosid) [SIL 64] | 70-75% | 140-220 nm | 120-220 nm | 65-75% | 70-85% | 120-200 nm |  | 
